Values of other authors, collected in US8367605B2, “Copolymer-1 improvements in compositions of copolymers” (Yeda Research and Development Co. Ltd., priority 1994, dated 2013).

Key:
[1] = tested on: patients with the exacerbating-remitting form of multiple sclerosis; settings: daily injections; N. Engl. J. Med. [1987]317:408
[2] = tested on: experimental autoimmune encephalomyelitis (EAE); settings: Eur. J. Immunol. [1971]1:242; U.S. Pat. No. 3,849,550

For copolymer-1, the “disability status versus control patients” value [1] is listed as “smaller increases in their disability status”, the “exacerbations versus control patients” value [1] is listed as “fewer exacerbations” and the “effect on EAE” value [2] is listed as “suppress EAE”.
